Reference: PubChem BioAssay AID790 (SRMLSC, 2007)
Active and inactive are the calls of the source. The rule behind the calls is not given here.

What was measured:
[1] = growth inhibition of yeast vps1Δ mutant, dose response, S. cerevisiae, background strain comparison (AID 790); conditions: S. cerevisiae vps1Δ mutant growth inhibition; measured here: background strain growth inhibition
[2] = test system: S. cerevisiae vps1Δ mutant growth inhibition; assay: as above

| SMILES | IC50 [1] [µM] | IC50 [2] |
| --- | --- | --- |
| Cc1sc(NC(=O)c2ccco2)c(C(c2cccnc2)N2CCC(C)CC2)c1C (stereo not drawn) | 5.77 | > 10 µM (inactive) |
| O=C(C1COc2ccccc2O1)N1CCN(Cc2ccc3c(c2)OCO3)CC1 (stereo not drawn) | > 10 | > 10 µM (inactive) |
| O=c1cccc2n1CC1CC2CN(S(=O)(=O)c2ccccc2)C1 (stereo not drawn) | > 10 | > 10 µM (inactive) |
| O=C(OCn1ncc(Br)c(Br)c1=O)c1ccc(F)cc1 | 5.38 | 3.91 µM |
| O=C(N/N=C/c1ccc([N+](=O)[O-])o1)c1cc(-c2cccc(Br)c2)nc2ccccc12 | 4.65 | 0.918 µM |
| Cc1ccc(S(=O)(=O)c2c(C)nn(C(C)(C)C)c2OC(=O)c2ccc(Br)o2)cc1 | > 10 | > 10 µM (inactive) |
| COc1cccc(NC(=O)C2CCCN2C(=O)OCc2ccccc2)c1 (stereo not drawn) | > 10 | > 10 µM (inactive) |
| Cc1cccc2cc(C#N)c(NCCCn3ccnc3)nc12 | > 10 | > 10 µM (inactive) |
| ON=Cc1cccn1-c1ccccc1 | > 10 | > 10 µM (inactive) |
| Cc1ccc(C2(C(F)(F)F)N=C3Sc4cc(C)cc(C)c4N3C(=O)N2)cc1 (stereo not drawn) | 1.08 | 1.37 µM (inactive) |
| N#CC1=C(N)NC(SCc2ccc(F)cc2)=C(C#N)C12CCCCC2 | 16.3 | 2.12 µM |
| c1ccc2c(c1)oc1c(Nc3ccc(CN4CCOCC4)cc3)ncnc12 | > 10 | > 10 µM (inactive) |
| c1ccc(Nc2cc(-c3ccccc3)nc3ncnn23)cc1 | > 10 | 5.22 µM |
| Clc1cc(Br)ccc1OCCOCCN1CCOCC1 | > 10 | > 10 µM (inactive) |
| O=C(c1ccco1)N1CCN=C1SCc1cccnc1 | > 10 | > 10 µM (inactive) |
| O=Cc1cc2ccccc2nc1SCc1ccc(Cl)cc1 | > 10 | > 10 µM (inactive) |
| CCc1ccc(C(=O)/C=C/c2ccc([N+](=O)[O-])o2)cc1 | 20.7 | 2.13 µM |
| CCN(CC)c1ccc(CN2CC=C(c3ccc(F)cc3)CC2)cc1 | 25.8 | > 10 µM (inactive) |
| O=C(OCn1ncc(Cl)c(Cl)c1=O)c1ccc(C(F)(F)F)cc1 | > 10 | > 10 µM (inactive) |
| O=C(Nc1nnc(-c2ccccc2)o1)c1ccc(Cl)cc1 | 0.65 | 0.418 µM |
| O=C(O)c1ccc(N2CCCCC2)cc1 | > 10 | > 10 µM (inactive) |
| Cc1ccnc(N2C(=O)c3cccc4c([N+](=O)[O-])ccc(c34)C2=O)c1 | 4.22 | 2.86 µM |

| SMILES | IC50 [1] [µM] | IC50 [2] |
| --- | --- | --- |
| Cc1cccc(-c2c3c(=O)n(C)c(=O)n(C)c3cn2C2CCCCC2)c1 | > 10 | > 10 µM (inactive) |
| Fc1ccc(-c2noc(C3CCN(Cc4cccnc4)CC3)n2)cc1 | > 10 | > 10 µM (inactive) |
| CC1CN(CCCCOc2ccc(C(C)C)cc2)CC(C)O1 (stereo not drawn) | > 10 | > 10 µM (inactive) |
| CCOC(=O)C1=C(CSc2nc(-c3ccccc3)ccc2C#N)OC(N)=C(C#N)C1c1cccnc1 (stereo not drawn) | > 10 | > 10 µM (inactive) |
| CCOc1ccc(-c2[nH]ncc2Oc2ccccc2OCC)c(O)c1 | 16 | 23.7 µM (inactive) |
| O=C(Cc1cccs1)Nc1nc2c(s1)CCCC2 | > 10 | > 10 µM (inactive) |
| O=C(OCn1nnc2ccccc2c1=O)c1cn(-c2ccccc2)nc1-c1cccnc1 | > 10 | > 10 µM (inactive) |
| Cc1nn(-c2ccccn2)c(C)c1Oc1ccccc1O | > 10 | > 10 µM (inactive) |
| Cc1ccc(/C=N/n2cnc3sc(-c4ccccc4)cc3c2=O)o1 | > 10 | > 10 µM (inactive) |
| C=CCc1ccccc1OCC(O)CN1CCN(Cc2ccc3c(c2)OCO3)CC1 (stereo not drawn) | > 10 | > 10 µM (inactive) |
| COc1ccc2c(c1)C(C)=CC(C)(C)N2C(=O)CSc1nnc(-c2ccc(C)cc2)o1 | > 10 | > 10 µM (inactive) |
| N#CC1=C2SCC(O)(c3ccccc3)N2C(=O)CC1c1ccccc1 (stereo not drawn) | > 10 | > 10 µM (inactive) |
| COCCCn1c2nc3ccccc3nc2c2c(=O)n(-c3ccccc3OC)cnc21 | > 10 | > 10 µM (inactive) |
| O=C(COc1ccc(Br)cc1F)NC1CCN(Cc2ccccc2)CC1 | > 10 | > 10 µM (inactive) |
| CCCCC1(CCCC)C(=O)NC(=Nc2cccc(C)c2)NC1=O | > 10 | > 10 µM (inactive) |
| CCOC(=O)C(C)Oc1ccc2c(C)cc(=O)oc2c1C(C)=O (stereo not drawn) | > 10 | > 10 µM (inactive) |
| CCOC(=O)Cn1cc(C=O)c2ccccc21 | > 10 | > 10 µM (inactive) |
| CCC(OC(=O)C(NC(=O)c1ccccc1)c1ccccc1)C(=O)Nc1cc(C)on1 (stereo not drawn) | > 10 | > 10 µM (inactive) |
| CCCC(=O)Nc1ccc(Cl)c(NC(=O)c2cccnc2Cl)c1 | > 10 | > 10 µM (inactive) |
| CC(C)COC(=O)c1ccc2c(c1O)C(=O)c1ccccc1C2=O | > 10 | 22.9 µM |
| COc1cccc(C(=O)N2CCN(C3CCC(c4ccccc4)CC3)CC2)c1OC (stereo not drawn) | 23.9 | 23.3 µM |
| Cc1cccc(OCC(=O)O/N=C(\N)Cc2ccc(Cl)cc2)c1 | 10.4 | > 10 µM (inactive) |

| SMILES | IC50 [1] [µM] | IC50 [2] |
| --- | --- | --- |
| Cc1ccc(-n2cc3c(-c4cccc(Br)c4)nnc(C)c3n2)cc1 | 13.5 | 1.48 µM |
| CC(=O)NC1C(c2nc3ccccc3s2)=C(c2ccccc2)C(=O)N1c1ccc(C)cc1 (stereo not drawn) | 1.92 | 2.18 µM (inactive) |
| CCCCOc1ccc(-c2ncc(C(=O)O)c(C)n2)cc1 | > 10 | > 10 µM (inactive) |
| O=C(NCc1ccccc1)NS(=O)(=O)c1ccccc1Cl | > 10 | > 10 µM (inactive) |
| Cc1ccc2cc(CN(CCO)Cc3nnnn3Cc3ccc(F)cc3)c(=O)[nH]c2c1 | > 10 | > 10 µM (inactive) |
| CCOC(=O)NC(Nc1ccc(S(N)(=O)=O)cc1)(C(=O)OCC)C(F)(F)F (stereo not drawn) | > 10 | > 10 µM (inactive) |
| CN1C(=O)/C(=C/c2cccn2-c2ccc3ccccc3c2)C(=O)NC1=S | 6.58 | 14.2 µM (inactive) |
| CCN1C(=O)c2ccc(C(=O)NCc3ccccc3)cc2C1=O | > 10 | > 10 µM (inactive) |
| Cn1c2ccc(Cl)cc2c2nc3ccccc3nc21 | > 10 | > 10 µM (inactive) |
| COC(=O)c1ccc(CSc2nnc(NC(C)C)s2)cc1 | > 10 | > 10 µM (inactive) |
| COC(=O)C1=CN(CCCN2CCCC2=O)C=C(C(=O)OC)C1c1ccccc1C(F)(F)F | > 10 | > 10 µM (inactive) |
| CC1CCCCC1NC(=O)CSc1nnnn1-c1ccccc1 (stereo not drawn) | > 10 | > 10 µM (inactive) |
| O=C1CN(C(=O)CSc2nnc(-c3ccccc3)n2Cc2ccc3c(c2)OCO3)c2ccccc2N1 | > 10 | > 10 µM (inactive) |
| CCCn1nc([N+](=O)[O-])c(C(C#N)c2nc3ccccc3s2)c(Cl)c1=O (stereo not drawn) | 2.16 | 1.5 µM |
| COc1ccccc1N1CCN(Cc2ccccc2F)CC1 | > 10 | > 10 µM (inactive) |
| CCCCS(=O)(=O)/C=C\C=C/S(=O)(=O)CCCC | 13.9 | 12.1 µM |
| Cc1nnc(-c2cccc(Br)c2)c2cn(-c3ccccc3)nc12 | > 10 | > 10 µM (inactive) |
| O=[N+]([O-])c1cc(C(F)(F)F)ccc1N/N=C/c1cc2ccccc2nc1Cl | > 10 | > 10 µM (inactive) |
| c1coc(CNc2nc(N3CCCCC3)nc3ccccc23)c1 | > 10 | > 10 µM (inactive) |
| Cc1ccc(CN2CCN(/N=C/c3cc(Br)ccc3O)CC2)cc1 | > 10 | > 10 µM (inactive) |
